The source of these data is patent US11167005B2, “Peptides for treating Sjogren's syndrome” (YEDA RESEARCH AND DEVELOPMENT CO. LTD., priority 2017, dated 2021).

One data set deals with TGF-β. The experiment in a line: TGF-β gene expression in PBMCs of SS patients, real-time RT-PCR. The format is cell-based, human. The conditions noted are these: 48 hours; for expression of the gene for TGF-β: PBMCs isolated from SS patients, p=0.012 vs medium alone, p=0.028 vs control peptide. Here is the method:
(§1) 5×10^6/mL peripheral blood mononuclear cells (PBMCs) obtained from blood samples of rheumatoid arthritis (RA) patients, anti-phospholipid syndrome patients (APS) and SS patients were incubated in-vitro in: medium alone, medium containing 25 μg/mL hCDR1 (SEQ ID NO: 1), or medium containing 25 μg/mL of control scrambled peptide (SEQ ID NO: 2). Following 48 hours of incubation, cells were collected and mRNA was prepared from all samples. The expression of various genes was determined using real-time RT-PCR. The control peptide has the same amino acid residues as SEQ ID NO:1 in a scrambled order.
PBMCs of patients with pSS were isolated and incubated in vitro for 48 hours in the presence of medium, hCDR1 (SEQ ID NO: 1) or a control scrambled peptide (SEQ ID NO: 2). Thereafter, RNA was extracted from the cells and gene expression was determined by real-time RT-PCR.
For orientation: Quantitative PCR measures a nucleic acid by following its amplification.

The next data set deals with FOXP3. Nature of the data set: FOXP3 gene expression in PBMCs of SS patients, real-time RT-PCR. It counts as cell-based, human. Here is the method:
as §1
(§2) The effect of IDO inhibition on the expression of the suppressive master gene FOXP3, that is expressed on functional T regulatory cells, was tested.

The next data set has as its system anti-DNA antibodies. The conditions noted are these: background statement; cited from earlier work.
Another data set relates to MX1. Nature of the data set: MX1 gene expression in PBMCs of SS patients, real-time RT-PCR. The conditions noted are these: 25 μg/mL, 48 hours. It counts as cell-based, human. The method, then: as §1
The subject of another data set is TNF-α. The experiment in a line: TNF-α gene expression in PBMCs of SS patients, real-time RT-PCR. It counts as cell-based, human. The note with it: 25 μg/mL, 48 hours. The method, then:
as §1

The subject of a further data set is DNA. The conditions noted are these: background statement; cited from earlier work.
A further data set has as its system BLyS. The experiment in a line: BLyS gene expression in PBMCs of SS patients, real-time RT-PCR. It counts as cell-based, human. The conditions noted are these: 25 μg/mL, 48 hours. The method, then: as §1
Data set [1] concerns IDO. Nature of the data set: IDO gene expression in PBMCs of pSS patients, real-time RT-PCR. The format is cell-based, human. The conditions noted are these: for IDO gene expression on addition of recombinant cytokine to cultures of PBMCs with hCDR1: compared with hCDR1 alone (FIG. 3C). Here is the method:
Following 48 hours of incubation, cells were collected and mRNA was prepared from all samples. The expression of various genes was determined using real-time RT-PCR.
Thereafter, RNA was extracted from the cells and gene expression was determined by real-time RT-PCR.
Since both IL-1β and IFN-α were reported to increase the production and expression of IDO, the effects of the addition of recombinant IL-1β or IFN-α to cultures of PBMCs with hCDR1 on IDO gene expression were further tested.
as §2

The next data set deals with IL-1β. Nature of the data set: IL-1β gene expression in PBMCs of SS patients, real-time RT-PCR. The format is cell-based, human. The conditions noted are these: 25 μg/mL, 48 hours. The method, then: as §1
The conditions of data set [2]: Phase Ia and Ib clinical studies, humans; cited from earlier work.
The next data set has as its system SLE patients. The note with it: Phase II clinical trial in SLE patients (Urowitz et al. 2015); cited from earlier work.
Data set [3] has as its system pathogenic cytokines. Nature of the data set: Gene expression of pathogenic cytokines in PBMCs of anti-phospholipid syndrome patients. It counts as cell-based, human. The note with it: 25 μg/mL, 48 hours, vs medium alone or control peptide (FIG. 1B). The method, then:
as §1

Another data set relates to SLE in murine models. The note with it: cited from earlier work.
Data set [4] has as its system pathogenic cytokines. The experiment in a line: Gene expression of pathogenic cytokines in PBMCs of rheumatoid arthritis patients. The format is cell-based, human. The note with it: 25 μg/mL, 48 hours, vs medium alone or control peptide (FIG. 1A). The method, then:
as §1

The subject of data set [5] is IDO. The experiment in a line: IDO gene expression in PBMCs of subjects with RA. The format is cell-based, human. The note with it: 48 hours (FIG. 3B).
Where [6] appears, read: FOXP3 gene, PBMCs of SS patients, 25 μg/mL, 48 hours.
The mark [7] stands for this setting: vs medium alone and control scrambled peptide (FIG. 2).
[8] abbreviates: IDO gene, PBMCs of SS patients, 48 hours.
[9] abbreviates: TGF-β gene, PBMCs of SS patients.
Where [10] appears, read: PBMCs of pSS patients, compared with hCDR1 alone (FIG. 3D).

“Also recorded” adds a separate entry of the source.

With “SKGIPQYGGWPWEGWRYEI [control scrambled peptide, Control peptide, reference compound]”, the “expression of the gene for TGF-β” value in the data set on TGF-β is given as “not”.
On to “GYYWSWIRQPPGKGEEWIG [hCDR1, 19-amino-acid synthetic peptide based on CDR1 of the heavy chain of human anti-DNA mAb 16/6Id]”, for which the “Modulation by hCDR1” value in the data set with FOXP3 (setting [6]) was “Upregulation”; with MX1 (MX1 gene), “Downregulation”; in the data set with TNF-α (TNF-α gene), “Downregulation”; in the data set on BLyS (BLyS gene) it was “Downregulation”; in the data set with IDO [1] (setting [8]), “Upregulation”; with TGF-β (setting [9]), “Upregulation”. Further, in the data set on IL-1β (IL-1β gene), the “Modulation by hCDR1” value was “Downregulation”. Besides, the “Percent responders exhibiting gene expression modulation, hCDR1 compared to control peptide” value in the data set with FOXP3 (setting [6]) was “(58%)”; in the data set on MX1 (MX1 gene) it was “(77%)”; with TNF-α (TNF-α gene), “(61.5%)”; with BLyS (BLyS gene), “(50%)”; in the data set on IDO [1] (setting [8]) it was “(69%)”; in the data set with TGF-β (setting [9]), “(72.7%)”. Moreover, the “Percent responders exhibiting gene expression modulation, hCDR1 compared to control peptide” value with IL-1β (IL-1β gene) is “(61.5%)”. The “Percent responders exhibiting gene expression modulation, hCDR1 compared to medium” value is recorded as “(75%)” with FOXP3 (setting [6]); “(77%)” in the data set with MX1 (MX1 gene); “(78.5%)” with TNF-α (TNF-α gene); “(70.5%)” in the data set on BLyS (BLyS gene); “(81%)” in the data set with IDO [1] (setting [8]); “(70.5%)” with TGF-β (setting [9]). The “Percent responders exhibiting gene expression modulation, hCDR1 compared to medium” value in the data set on IL-1β (IL-1β gene) was “(86%)”. The “Responders/Total, hCDR1 compared to control peptide” value was 7/12 in the data set with FOXP3 (setting [6]); 10/13 in the data set on MX1 (MX1 gene); 8/13 in the data set with TNF-α (TNF-α gene); 6/12 with BLyS (BLyS gene); 9/13 in the data set with IDO [1] (setting [8]); 8/11 with TGF-β (setting [9]). Also, in the data set with IL-1β (IL-1β gene), the “Responders/Total, hCDR1 compared to control peptide” value is 8/13. In addition, the “Responders/Total, hCDR1 compared to medium” value in the data set on FOXP3 (setting [6]) is reported as 12/16; in the data set with MX1 (MX1 gene) it was 10/13; with TNF-α (TNF-α gene), 11/14; in the data set on BLyS (BLyS gene) it was 12/17; in the data set on IDO [1] (setting [8]), 13/16; in the data set with TGF-β (setting [9]), 12/17. The “Responders/Total, hCDR1 compared to medium” value in the data set on IL-1β (IL-1β gene) is recorded as 12/14. Also, the “gene expression of the FOXP3 gene” value in the data set with FOXP3 (PBMCs of SS patients, 25 μg/mL, 48 hours, vs medium alone and control scrambled peptide (FIG. 2)) is given as “significant increase”. In addition, the “binding to anti-DNA antibodies” value with anti-DNA antibodies is “does not bind”. Besides, the “gene expression of MX1” value in the data set with MX1 (setting [7]) was “significant reduction; also recorded: significant effects”. The “gene expression of TNF-α” value in the data set with TNF-α (setting [7]) was “significant reduction; also recorded: significant effects”. Besides, the “binding to DNA” value in the data set on DNA is on record as “does not bind”. Moreover, the “gene expression of the BLyS gene” value in the data set on BLyS (setting [7]) is “significant reduction”. Besides, the “expression of the IDO gene” value with IDO [1] (PBMCs of patients with pSS, 48 hours, vs medium alone or control peptide (FIG. 3A)) was “up-regulated significantly”. Further, the “expression of the gene for TGF-β” value in the data set with TGF-β is on record as “significantly up-regulated”. Besides, the “gene expression of IL-1β” value in the data set on IL-1β (setting [7]) was “significant reduction; also recorded: significant effects”. In data set [2], the safety and tolerability result is “safe and well tolerated”. In the data set with SLE patients, the “effects on several parameters” value was “beneficial effects”. The “gene expression of pathogenic cytokines” value in the data set with pathogenic cytokines [3] and in the data set on pathogenic cytokines [4] was “No significant effects; also recorded: non-significant effects” in each case. The “serological and clinical disease manifestations of SLE” value in the data set on SLE in murine models is “ameliorate serological and clinical disease manifestations”. Besides, the “expression of IDO” value in the data set with IDO [5] is recorded as “did not affect significantly”.
On to “IL-1β: recombinant IL-1β added to cultures of PBMCs with hCDR1”, for which, in the data set on IDO [1], the “IDO gene expression on addition of recombinant cytokine to cultures of PBMCs with hCDR1” value is given as “increased IDO gene expression to levels much higher”.
On to IFN-α, for which the “IDO gene expression on addition of recombinant cytokine to cultures of PBMCs with hCDR1” value in the data set with IDO [1] is on record as “increased IDO gene expression to levels much higher”.
For `Cn1cc(C[C@@H](N)C(=O)O)c2ccccc21` [1 mT, 1-methyl-D-tryptophan, reference compound], the “FOXP3 expression on addition of 1 mT to PBMC cultures with hCDR1” value in the data set on FOXP3 (setting [10]) was “significant down-regulation”. For the same compound, the “IDO gene expression on addition of 1 mT to PBMC cultures with hCDR1” value in the data set on IDO [1] (setting [10]) is “significant decrease”.
